Laboratory results taken from patent publication US20240366594A1, “Small Molecule Inhibitors of Formation of Neutrophil-Derived Extracellular Traps (NETosis) and Uses Thereof” (The Brigham and Women's Hospital, Inc., priority 2021, published 2024).

Key:
human neutrophils [1] = experiment: Citrullinated histone H3 (CitH3) NET induction in PMA-stimulated human neutrophils; format: cell-based; details: for NET induction, measured as CitH3 staining: drugs 10, 2, 0.4, 0.08 μM or GSK484 10 μM for 1 h, then 1 μM PMA 3 h, FIGS. 1A and 5D
Procedure: FIGS. 1A-H. Class I/II HDACs drive NET formation • (A and B) Freshly purified human (A) or mouse (B) neutrophils were treated with the indicated HDAC inhibitors at different doses (10, 2, 0.4, 0.08 μM), or with GSK484 (10 μM), for 1 h and then stimulated with 1 μM PMA for 3 h. Cells were fixed and stained with anti-citrullinated histone H3 (CitH3) antibody. NETosis induction was measured as the level of anti-CitH3 fluorescent signal. PMA alone represents 100% of NET induction. “-”: Cells treated with the highest dose of the indicated drug but not activated with PMA. • (C and D) Human neutrophils were treated, or not, with ricolinostat or GSK484 and then stimulated with 1 μM PMA. NETosis induction was measured as area of nuclei stained with DAPI. (C) 3D reconstruction of nuclei in each treatment (grid size 7.8 μm). (D) Quantification of DAPI signal from multiple fields of view (D) (n=9 for unstimulated, not pretreated with any drug [NT] and ricolinostat, n=7 for GSK484). • (E and F) Human neutrophils were treated as in (C-D), and immunoblot analysis of the indicated proteins was performed. Relative quantification of band intensity was analyzed with ImageJ software (F). White violins plots depict the quantification of histone H3 acetylation; red violin plots depict the quantification of histone H3 citrullination. Immunoblot in E is representative of four independent experiments. Gasdermin D NT, gasdermin D N terminal; pMLKL, phospho-MLKL. • (G) Human (left) or murine (right) neutrophils were treated, or not, with ricolinostat (10 μM) and then stimulated with 1 μM PMA for 3 h. ROS production was measured by luminescence with luminol-HRP. Histograms represent the total amount of ROS produced overtime. • (H) Murine neutrophils were treated, or not, with ricolinostat (10 μM) and then stimulated with fluorescent E. coli at the indicated multiplicity of infection (MOI) for 1 h. The histogram represents the percentage of neutrophils positive for E. coli staining. Graphs show mean±SEM. Statistics were calculated using one-way ANOVA (A, B, D) and two-way ANOVA (F, G, H) (*p<0.05; **p<0.01; ****p<0.0001. n.s., not significant). Statistics refers to the comparison with neutrophils stimulated with PMA alone (A, B). Gray stars represent comparison of all experimental groups with the unstimulated control, and black stars represent comparison between drug-treated groups and cells treated with PMA only (NT) (D). See also FIGS. 5A-J.
FIGS. 5A-J. Class I/II HDACs drive NET formation. • A) Quantification of extracellular DNA released by neutrophils treated, or not, with 1 μM GSK484 for 1 h and then stimulated with 1 μM PMA for 4 hours. Unstimulated, neutrophils not treated with drugs were used as a control. • B) Freshly purified human neutrophils were treated with the indicated HDAC inhibitors at different doses (0.08, 0.4, 2 and 10 μM) for 1 hour. Extracellular DNA release was assessed in the supernatant 3 hours after PMA stimulation. The dotted line represents the amount of DNA released from neutrophils treated with PMA alone. “-”: cells treated with the highest dose of the indicated drug but not activated with PMA. • C) Freshly purified human neutrophils were stimulated for 1 h, 3 h or 5 h. Cells were fixed and stained with an anti-CitH3 antibody. NETosis induction was measured as level of anti-CitH3 fluorescent signal. 5h-PMA treatment represents 100% NET induction. • D) Representative images of freshly isolated human neutrophils treated or not with 10 μM of the indicated drugs and stimulated with 1 μM PMA for 3 hours. Cells were fixed and then stained for CitH3 (red) and nuclei (blue). Scale bar=100 μm. • E) Murine neutrophils were treated with ricolinostat or GSK484 and then stimulated with […] for 3 hours. NET induction was measured as in (C). […]

human neutrophils [2] = experiment: Immunoblot of PMA-treated human neutrophils (cell death markers, histone H3 acetylation and citrullination); format: cell-based; details: for PMA-induced gasdermin D (GSDMD) cleavage: 1 μM PMA; for PMA-induced gasdermin D (GSDMD) cleavage / activation of apoptosis or necroptosis: immunoblot FIG. 1E; for activation of apoptosis or necroptosis: PMA-treated cells exposed to drug; for H3 citrullination: compared with cells treated with PMA only
[3] = test system: mice treated with S. aureus; experiment: S. aureus pulmonary infection model (bacterial pneumonia); format: in vivo, mouse; details: for NETosis (citrullinated histone H3 and MPO-DNA complexes in BALF): ELISA, FIGS. 3E and 3F; for bacterial control (S. aureus CFU in lung homogenates): FIG. 3D; for numbers of neutrophils in the BALF: FIG. 3I; for neutrophils circulating in the blood: FIGS. 3H, 7A; for lung barrier alteration (albumin content in BALF): compared with S. aureus alone, FIG. 3C; for citrullinated histone H3-positive neutrophils in the BALF: cytofluorimetric quantification, FIG. 3G; for IL-1β / IL-6: in the BALF, compared with S. aureus only, FIGS. 7B-7D

Row | SMILES | NET induction, measured as CitH3 staining (human neutrophils [1]) | PMA-induced gasdermin D (GSDMD) cleavage (human neutrophils [2]) | activation of apoptosis or necroptosis (human neutrophils [2]) | H3 citrullination (human neutrophils [2]; FIGS. 1E and 1F) | NETosis (citrullinated histone H3 and MPO-DNA complexes in BALF) [3] | bacterial control (S. aureus CFU in lung homogenates) [3] | numbers of neutrophils in the BALF [3] | neutrophils circulating in the blood [3] | lung barrier alteration (albumin content in BALF) [3] | citrullinated histone H3-positive neutrophils in the BALF [3] | IL-1β [3] | IL-6 [3] | NET formation (level of CitH3), two independent donors (human neutrophils [1]; 10, 2, 0.4, 0.08 μM for 1 h, then 1 μM PMA, FIGS. 5H, 5I) | NETosis (anti-CitH3 signal), comparison of class I/IIb and class IIb selective inhibitors (human neutrophils [1]; drugs 10, 2, 0.4, 0.08 μM 1 hour, then 1 μM PMA 3 hours, FIG. 5F) | histone H3 acetylation (human neutrophils [2]; untreated as well as PMA-treated cells, FIGS. 1E and 1F) | morbidity (body temperature) ([3]; ricolinostat 30 mg/kg/dose i.p. at -24 h and -3 h, compared with S. aureus only and with S. aureus and GSK484, FIG. 3B)
1 | COc1cc(C(=O)N2CC[C@@H](O)[C@@H](N)C2)cc2nc(-c3cc4ccccc4n3CC3CC3)n(C)c12 [GSK484] | dramatically reduced NET induction | not altered | excluded the activation of apoptosis or necroptosis | completely abrogated | potently decreased | not affected | increased numbers | no major differences | prevented | inhibit NETosis | significantly decreased | significantly decreased | – | – | – | –
2 | O=C(CCCCCCNC(=O)c1cnc(N(c2ccccc2)c2ccccc2)nc1)NO [ricolinostat] | prevented NET release in a dose-dependent manner with an efficacy comparable with GSK484 | not altered | excluded the activation of apoptosis or necroptosis | significantly decreased | potently decreased | not affected | increased numbers | no major differences | prevented | inhibit NETosis | significantly decreased | significantly decreased | inhibited NET formation to a comparable extent | class I/IIb HDAC inhibition prevented NETosis | boosted | significantly decreased
